# Experiments:
# [1] = tested on: collagen-induced arthritis (CIA) in Lewis rats; assay: Collagen-induced arthritis (CIA) treatment trial; type: in vivo, rat
# Protocol: Starting at onset of clinical signs, four groups of rats received ˜1×10^9 CFU of either LrGusA or LrS235, both after SppIP induction for 2.5 hr, by daily oral gavage, or P6N vehicle or synthetic ShK-235 by injection in the scruff of the neck every other day.
# Induction, monitoring, randomization, and treatment of rat collagen-induced arthritis. CIA was induced as described previously (46, 50). Briefly, female Lewis rats received a subcutaneous injection of 200 μl of a 1:1 emulsion of 2 mg/ml porcine type II collagen (20031, Chondrex, Redmond, WA) with incomplete Freund's adjuvant at the base of the tail. After 7 days, rats were given a booster of 100 μl of collagen and adjuvant emulsion. Disease onset was defined as the development of at least one swollen or red paw joint. Clinical scores were determined daily by assigning 1 point for each swollen or red toe joint, 2 points for mildly swollen wrist or ankle joints, and 5 points for each severely swollen wrist or ankle, giving each rat a maximum possible score of 60. Upon disease onset, rats were treated every other day by the subcutaneous injection of P6N buffer vehicle or 0.1 mg/kg ShK-235, or the oral gavage of 1×10^9 cfus LrGusA or 1×10^9 cfus LrS235 daily. CIA is more severe in rats with early disease onset. To avoid biasing results based on disease severity on the day each rat developed signs of disease and accounting for differences in the time between immunization and when a rat developed signs of illness, every rat that developed signs of disease on a given day was placed in a different treatment group to fill all groups in parallel.
# Histology and micro-CT. Healthy rats and rats from the CIA trials were euthanized after 21 days of treatment, and their hind paws were collected and fixed in 10% buffered formalin. One paw from each rat was imaged by Micro-CT using a Bruker SkyScan 1272 Scanner set at 13 μm resolution with no filtering, no averaging, and a rotation step of 0.3. Raw images were analyzed with CTvox (Bruker, MA, US). The other hind paw was decalcified, embedded in paraffin, and sectioned. Slides were stained with either hematoxylin and eosin or Safranin O/Fast green and imaged at 4× magnification on a Nikon Ci-L bright-field microscope (Nikon Inc. NY, US). Scoring of the slides was completed by an investigator blinded to treatment groups using a comprehensive histological scoring system as described elsewhere (46, 51), in which cartilage degradation, cartilage erosion, angiogenesis, pannus formation, synovial hyperplasia, and synovial inflammation were evaluated by the following criteria: 0=absent, 1=mild, 2=moderate, 3=severe. The data were presented as mean±standard deviation.
# [2] = tested on: DTH reaction mediated by antigen-specific TEM lymphocytes; assay: Active delayed-type hypersensitivity (DTH) reaction against ovalbumin in the ear; type: in vivo, rat
# Protocol: Then, it was assessed if LrS235 gavage could reduce a delayed-type hypersensitivity (DTH) reaction in the ear of rats, a local autoinflammation mediated by antigen-specific TEM lymphocytes. […] In contrast, treatment with LrGusA, capsules filled with ShK-235 or gelatin, and supernatants from the culture of the LrS235 had no effects on inflammation.
# Induction and monitoring of an active delayed-type hypersensitivity reaction. Male and female rats were immunized in the flanks with 200 μl of a 1:1 emulsion of ovalbumin (Sigma, St. Louis, MO) in complete Freund's adjuvant (Difco/Becton Dickinson, Franklin Lakes, NJ)(25). After 7 days, under isoflurane anesthesia, the rats were challenged with ovalbumin dissolved in saline in the pinna of one ear; the collateral ear was injected with saline (49). Rats received either a single subcutaneous injection of 0.1 mg/kg ShK-235 or P6N vehicle, a single oral gavage of 1×10^9 cfus LrS235 or LrGusA, oral gavage of 1 ml supernatant of LrS235, or a capsule filled with ShK-235 or gelatin immediately before the ear challenge. The DTH reaction was measured 24 hours post-challenge as the thickness of the ear using a spring-loaded micrometer (Mitutoyo, Japan) and ear inflammation was determined by comparing the ear thickness of the ovalbumin-challenged with the saline-challenged ear from each (49). The animals were euthanized after the ear measurements.
# [3] = tested on: Kv1.3 versus Kv1.1 and other ion channels; assay: Selectivity for Kv1.3 over other channels by whole-cell patch-clamp; type: cell-based; settings: FIG. 5E
# Excerpt: FIGS. 5A-5E. […] FIG. 5A. Whole-cell Kv1.3 currents before (control) and after addition of 100 pM ShK-235. FIG. 5B. Dose-response effects of ShK-235 on Kv1.3 currents (n=4 cells per concentration). FIG. 5C. Dose-response of mKv1.3 block by synthetic ShK-235. N=3 cells per concentration. […] FIG. 5D. Representative traces of the block of mKv1.3 currents by 100 pM synthetic ShK-235. FIG. 5E. Selectivity of ShK-235 against Kv1.x channels determined by whole-cell patch-clamp.
# Kv1.3 = Kv1.3 (Mus musculus, UniProt P16390); assay: Block of Kv1.3 channel, reported potency; type: cell-based; settings: FIGS. 5A-5B; n=4 cells per concentration
# human and rat TEM cells = settings: cited from earlier work
# Chain of Kv1.3 (P16390 whole entry): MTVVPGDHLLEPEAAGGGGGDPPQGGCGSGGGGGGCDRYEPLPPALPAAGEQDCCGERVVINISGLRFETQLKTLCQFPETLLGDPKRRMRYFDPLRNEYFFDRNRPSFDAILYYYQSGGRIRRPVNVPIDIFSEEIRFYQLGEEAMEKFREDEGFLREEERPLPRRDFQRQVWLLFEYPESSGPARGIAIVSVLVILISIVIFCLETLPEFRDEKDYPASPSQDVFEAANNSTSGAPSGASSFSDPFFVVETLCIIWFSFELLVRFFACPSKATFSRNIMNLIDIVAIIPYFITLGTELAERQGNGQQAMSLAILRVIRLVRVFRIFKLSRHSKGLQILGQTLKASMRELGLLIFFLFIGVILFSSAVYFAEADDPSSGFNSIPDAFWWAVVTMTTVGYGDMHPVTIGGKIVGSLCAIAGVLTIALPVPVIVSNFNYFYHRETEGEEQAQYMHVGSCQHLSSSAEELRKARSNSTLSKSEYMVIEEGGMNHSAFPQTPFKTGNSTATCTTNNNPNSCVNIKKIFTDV
compound,measurement,setting,value
CC[C@H](C)[C@@H]1NC(=O)[C@H](CO)NC(=O)[C@H](Cc2c[nH]cn2)NC(=O)[C@H](CCCCN)NC(=O)[C@@H]2CSSC[C@@H]3NC(=O)[C@H]([C@@H](C)O)NC(=O)[C@H](CCCCN)NC(=O)[C@H](CCCNC(=N)N)NC(=O)[C@H](CSSC[C@H](NC(=O)[C@H](CCCNC(=N)N)NC(=O)[C@H](CO)NC(=O)[C@H](CCCCN)NC(=O)[C@@H]4CCCN4C(=O)[C@H]([C@@H](C)CC)NC(=O)[C@H]([C@@H](C)O)NC(=O)[C@H](CC(=O)O)NC(=O)[C@H]([C@@H](C)CC)NC(=O)[C@@H](NC(=O)[C@H](CO)NC(=O)[C@@H](N)CCCNC(=N)N)CSSC[C@@H](C(=O)N[C@@H](C)C(=O)O)NC(=O)[C@H]([C@@H](C)O)NC(=O)CNC3=O)C(=O)N[C@@H]([C@@H](C)O)C(=O)N[C@@H](C)C(=O)N[C@@H](Cc3ccccc3)C(=O)N[C@@H](CCCCN)C(=O)N2)NC(=O)[C@H](Cc2ccccc2)NC(=O)[C@H](CO)NC(=O)[C@H](CC(C)C)NC(=O)[C@H](CCCNC(=N)N)NC(=O)[C@H](Cc2ccc(O)cc2)NC(=O)[C@H](CCCCN)NC1=O [ShK-235],Mean clinical score of arthritis,"[1]; 21 days from onset, bacteria ~1×10^9 CFU daily oral gavage, synthetic ShK-235 0.1 mg/kg s.c. every other day, max score 60",11±3
same,"Joint histology parameters (cartilage degradation and erosion, angiogenesis, pannus, synovial hyperplasia and inflammation)",[1]; end of trial,significantly reduced all parameters
same,Micro-CT imaging of hind limbs (bone erosion),[1]; end of trial,better-preserved bones
same,Reduction of mean clinical score compared to vehicle control,[1]; same regimens as mean score,~60%
same,Effect on ear inflammation,[2]; oral enteric-coated capsule filled with ShK-235,no effects
same,Reduction of ear inflammation compared with vehicle control,[2]; single subcutaneous injection 0.1 mg/kg,58%
same,Selectivity for Kv1.3 over other channels,[3],"≥ 2,200 fold"
same,IC50,Kv1.3,0.062 nM
same,Effect on activation and function of human and rat naïve and TCM cells,human and rat TEM cells,little to no effect
same,Inhibition of activation of human and rat TEM cells,human and rat TEM cells,preferentially inhibits

# Source: patent US20250213627A1, “RECOMBINANT MICROORGANISM-BASED METHODS AND COMPOSITIONS FOR TREATMENT OF DISEASE” (Baylor College of Medicine, priority 2021, published 2025)
